From US20250313653A1, “GUEST/HOST INCLUSION COMPLEXES CONTAINING S-NITROSOGLUTATHIONE AND METHODS OF USE THEREOF” (VIRGINIA COMMONWEALTH UNIVERSITY, priority 2022, published 2025)

Assay: GSNO decomposition in the presence of biologically relevant reactants (cysteine, L-ascorbic acid, BSA)
Assay type: physicochemical
Details: for GSNO left after 24 h of storage: 0.1 M GSNO with 20 mg/mL BSA, 37° C.
Protocol: GSNO was synthesized by nitrosation of reduced L-glutathione in acidified nitrite as previously reported.^52 After collecting GSNO precipitates and washing them using cold water and acetone, GSNO powder was vacuum dried for 4 h and stored at −20° C. GSNO powders were dissolved in phosphate buffer (PB) containing the same mole of Na2HPO4 before the pH adjustment. For example, the formal concentration of Na2HPO4 is 0.1 M when the GSNO concentration is 0.1 M. One hundred μM EDTA was always added to each solution before the solution pH was finally adjusted to 7.4 via NaOH. EDTA is a chelating agent to mask Cu^2+, a S-nitrosothiol catalyst that may exist in solvents and chemicals as an impurity.^53 For solutions with reactive agents, BSA, ascorbic acid, or cysteine was added before the pH adjustment. To prepare GSNO-CD solutions, appropriate amounts of CD powders were dissolved into the GSNO solutions prior to the pH adjustment.
Aqueous GSNO solutions were contained in 1.5 mL disposable polystyrene cuvettes. The cuvette was caped and further sealed with parafilm. The concentrations of GSNO during storage at 37° C. or 25° C. in the dark were monitored by a UV-vis spectrophotometer (Go Direct® Fluorescence/UV-VIS Spectrophotometer) at a wavelength of 545 nm. A 4 W LED white light was used as the light source for the photodecomposition experiment at room temperature. The distance between the light source and the cuvettes was approximately 10 cm. All GSNO decomposition experiments were triplicated, and the GSNO concentration was expressed as mean±standard deviation.

For N[C@@H](CCC(=O)N[C@@H](CSN=O)C(=O)NCC(=O)O)C(=O)O [GSNO, S-nitrosoglutathione], the GSNO lifetime (0.1 M GSNO in 0.1 M PB pH 7.4 with 10 mM cysteine or L-ascorbic acid, without αCD) was 2 to 3 days, the “effect on GSNO decomposition rate” value (0.1 M GSNO with 10 mM cysteine or L-ascorbic acid, addition of 0.1 M αCD, 4-day experiments) was “remarkably reduces the decomposition rate” and the “GSNO left after 24 h of storage” value (control group without αCD) was 21%. The “GSNO left after 24 h of storage” value (in the presence of 0.1 M αCD) was 41%.
